Measured values as given in US4933349A, “Treating agent for heart failure” (Daiichi Seiyaku Co., Ltd., priority 1987, dated 1990).
Entries after “also recorded” stand apart in the source; their conditions may differ. Where a name gives a salt, the structure may show the parent alone.

Tests used:
[1] = test system: Heart Failure induced by Myocardial Infarction; test: Efficacy in heart failure induced by myocardial infarction (left coronary artery ligation), hemodynamic measurements and ventricle weight; type: in vivo, SD-SLC male rats
Method: Efficacy in Heart Failure induced by Myocardial Infarction SD-SLC male rats (body weight: 272 to 315 g) (purchased from Shizuoka Jikken Dobutsu Kyodo Kumiai) were used as test animals. Intercostal thoracotomy was made on the left chest of the rat anesthesized with pentobarbital (50 mg/kg, i.p.). The left coronary artery was then ligated at the position 2 to 3 mm away from its origin according to the method of Selye et al, Angiology, Vol. 11, 398 (1960). Immediately after confirming that the peripheral cardiac muscle of the open chest rat was involved in ischemia, the opening was closed, and the animal was fed on food and tap water ad lib. As a sham operation group, another group of rats received thoracotomy in the same manner as described above except for carrying out no ligation of the coronary artery. […] A control group orally received 5 ml/kg/day of ion-exchanged water only. On the next day of the final administration of Compound A, a catheter was inserted into the femoral artery and the left ventricle of the rat under anesthesia with Inactin (100 mg/kg, i.p.), and systemic mean blood pressure, maximum rate of increase of the intraventricular pressure (LV dp/dt max), contractile index (LV dp/dt max/p), left ventricular systolic pressure, left ventricular diastolic pressure and heart rate were measured. After completion of these measurements, the heart was excised and divided into the left ventricle (including the septum) and the right ventricle. The wet weight of each ventricle was measured.

[2] = test system: Monocrotaline-Induced Heart Failure Model (Heart Failure induced by Pulmonary Hypertension); test: Efficacy in Monocrotaline-induced heart failure model (heart failure induced by pulmonary hypertension); type: in vivo, SD-SLC male rats
Method: Efficacy in Monocrotaline-Induced Heart Failure Model (A Model of Heart Failure induced by Pulmonary Hypertension)
SD-SLC male rats (body weight: 160 to 190 g) were used. Monocrotaline was dissolved in 1N hydrochloric acid, and the solution was adjusted to a pH of 7.4 with a 1N sodium hydroxide aqueous solution. Distilled water was added thereto to make a 40 mg/ml solution. The solution was subcutaneously administered to the rats at a dose of 40 mg/kg to prepare right ventricular insufficient rats.
Another group of rats was subcutaneously administered with 1 ml/kg of physiological saline only and served as intact control.
Compound A was dissolved in distilled water. Six hours from the administration of Monocrotaline, the solution was orally administered to the test animals at a single daily dose of 10 mg/kg for consecutive 1 month (6 days per week). As a control group, the right ventricular insufficient rats orally received 5 ml/kg of distilled water only.
On the next day of the final administration of Compound A, a catheter was inserted into the right ventricle under anesthesia with pentobarbital (50 mg/kg, i.p.), and the right ventricular systolic pressure was measured. Thereafter, the heart was excised, divided into the left ventricle (including the septum) and the right ventricle, and the wet weight of each ventricle was determined. The results obtained are given in Table 3, as expressed as mean±S.E.

[3] = test system: rats; test: Acute toxicity in rats (LD50), oral or intravenous; type: in vivo
Excerpt: Acute toxicities of Compound A in rats through oral administration or intravenous injection were as follows.

[4] = 10 mg/kg p.o. daily, 6 times per week, 1 month, mean±S.E., n = 7
[5] = 10 mg/kg p.o. daily, 6 times per week, 1 month, mean±S.E., n = 7, ** P < 0.01 vs sham, # P < 0.05 vs control group
[6] = coronary artery ligation, 1 month
[7] = wet weight after 10 mg/kg p.o. daily, 1 month, mean±S.E., n = 7, * P < 0.05 vs control group

## O=C(O)c1ccc2c(c1)CCC(Cn1ccnc1)C2 (stereo not shown) [Compound A, 6-(1-Imidazolylmethyl)-5,6,7,8-tetrahydronaphthalene-2-carboxylic acid hydrochloride hemihydrate]
[1]; [4]
  Heart Rate: 399 ± 14 min⁻¹
  Mean Blood Pressure: 132 ± 5 mmHg
[1]; 10 mg/kg p.o. daily, 6 times per week, 1 month, mean±S.E., n = 7, * P < 0.05 vs sham operation group
  Left Ventricular Systolic Pressure: 143 ± 6 mmHg
[1]; [5]
  Contractile Index (LV dp/dt max/p): 79 ± 5 s⁻¹
  Left Ventricular Diastolic Pressure: 12.0 ± 3.2 cmH2 O
[1]; [6]
  Contractile index (result in words): inhibition on reduction of contractile index
  Left ventricular diastolic pressure (result in words): inhibition on reduction of contractile index and on elevation of left ventricular diastolic pressure was observed
[1]; coronary artery ligation, 1 month, hydrochloride hemihydrate
  Ventricle weight / cardiac hypertrophy (result in words): increase of the ventricle weight can be suppressed significantly; also recorded: inhibit cardiac hypertrophy
[1]; long-term administration
  Blood pressure (result in words): without adversely affecting the blood pressure
  Cardiac contractility and pressure load to the heart (result in words): improved reduction of cardiac contractility and relieved pressure load to the heart
[1]; wet weight after 10 mg/kg p.o. daily, 1 month, mean±S.E., n = 7
  Weight of Ventricle, Right: 0.361 ± 0.028 g
[1]; [7]
  Weight of Ventricle, Left: 0.861 ± 0.029 g
  Weight of Ventricle, Total: 1.222 ± 0.052 g
[2]; 10 mg/kg p.o. daily, 6 days per week, 1 month, mean±S.E., N = 7, * P < 0.05 vs intact control, # P < 0.05 vs control group
  Right Ventricular Systolic Pressure: 46.9 ± 4.9 mmHg
[2]; 10 mg/kg p.o. daily, 6 days per week, 1 month, mean±S.E., N = 7, ** P < 0.01 vs intact control group
  Right Ventricle Weight/Left Ventricle Weight: 0.41 ± 0.04
[2]; Monocrotaline, 1 month
  Right ventricular hypertrophy / cardiac hypertrophy (result in words): showed a tendency to inhibit the right ventricular hypertrophy
  Right ventricular systolic pressure (result in words): significantly inhibited the increase in the right ventricular systolic pressure
[2]; long-term administration
  Improvement of heart failure induced by pulmonary hypertension (result in words): exhibited improvements of heart failure induced by pulmonary hypertension
[3]; female rats, i.v.
  LD50: 783 mg
[3]; female rats, p.o.
  LD50: 1994 mg
[3]; male rats, i.v.
  LD50: 807 mg
[3]; male rats, p.o.
  LD50: 2438 mg
